Results published in patent US5292732A, “Pyrrolopyrazine derivatives” (Hoffmann-La Roche Inc., priority 1991, dated 1994).

Tests used:
[1] = target: T1, MAO (substrate PEA) (Rattus norvegicus, UniProt P19643); assay: MAO inhibition in vitro, rat brain homogenate, substrate 14C-labelled phenylethylamine (PEA); format: biochemical; settings: substrate PEA 2×10^-5 M, 37° C.
T1 construct: 20 μl of rat brain homogenate; from tissue; host or cells: rat brain homogenate
T1 sequence (P19643 1-520): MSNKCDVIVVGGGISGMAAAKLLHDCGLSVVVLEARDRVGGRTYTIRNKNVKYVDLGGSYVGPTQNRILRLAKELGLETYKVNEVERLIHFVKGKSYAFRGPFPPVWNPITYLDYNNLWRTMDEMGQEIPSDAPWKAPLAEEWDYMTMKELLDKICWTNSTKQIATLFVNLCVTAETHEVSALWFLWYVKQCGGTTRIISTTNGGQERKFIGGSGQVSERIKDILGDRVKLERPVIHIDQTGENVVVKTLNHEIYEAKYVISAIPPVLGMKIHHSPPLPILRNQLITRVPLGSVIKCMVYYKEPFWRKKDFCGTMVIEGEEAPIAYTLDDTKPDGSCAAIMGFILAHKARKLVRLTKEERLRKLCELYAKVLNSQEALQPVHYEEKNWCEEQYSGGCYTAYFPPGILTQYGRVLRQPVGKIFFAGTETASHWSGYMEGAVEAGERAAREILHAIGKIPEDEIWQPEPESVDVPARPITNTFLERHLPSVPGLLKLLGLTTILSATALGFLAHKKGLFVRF
Description: (§1) The MAO inhibiting activity of the compounds in accordance with the invention can be determined in vitro or ex vivo using standard methods. The preparations to be tested were investigated in the tests described hereinafter, which were based on the methods of R. J. Wurtmann and J. A. Axelrod [Biochem. Pharmac. 12, 1439-41 (1963).
(§2) Isolated rat brains are homogenized in 0.1 molar potassium phosphate buffer (pH 7.4) in the ratio 1:4 (weight/volume), the homogenate is diluted with the same buffer in the ratio 1:5 (volume/volume) and stored at -20° C. A mixture of the following composition was used for the incubation:
(§3) 100 μl of 1M phosphate buffer (pH 6.7);
(§4) 100 μl of solution of the substance to be tested in water or in 10% aqueous dimethyl sulphoxide;
(§5) 20 μl of rat brain homogenate; and as the substrate
(§6) 80 μl of ^14 C-labelled serotonin (5-HT) or ^14 C-labelled phenylethylamine (PEA), the radioactive concentration of which amounts to 100,000 decay per minute and which is used in a final concentration of 2×10^-4 M and, respectively, 2×10^-5 M.
(§7) A pre-incubation at 37° C. is effected for 30 minutes prior to the addition of the substrate. The incubation (in the presence of the substrate) is likewise effected at 37° C. and lasts for 10 minutes. The reaction is stopped by the addition of 200 μl of 2N hydrochloric acid.
(§8) In order to extract the desaminated product, the mixture is shaken for 10 minutes with 5 ml of diethyl ether or with 5 ml of n-heptane depending on whether 5-HT or PEA is used as the substrate, whereupon the mixture is centrifuged, the aqueous phase is frozen in a dry-ice bath, the organic phase is transferred into a counting glass and the radioactive concentration is determined in a β-counter.
(§9) The activity of the MAO in comparison to the control homogenates (without substance to be tested) is obtained on the basis of the β-values and the IC50 is defined as that concentration of a substance to be tested which reduces the activity of the MAO upon the substrate 5-HT or PEA by 50%.

[2] = test system: MAO in the liver (substrate PEA); assay: MAO inhibition ex vivo in liver of rats, substrate PEA; set-up: species or system male albino rats (Fu-SPF); settings: rat, 100 μmol/kg orally, 2 hrs., given in percentage of the control values
Description: as §1
(§10) The compounds to be tested are investigated for the inhibition of MAO in the brain and liver of male albino rats (Fu-SPF, 100-140 g. The test compounds are administered orally as a solution or suspension in water in a dosage of 100 μmol per kilogram body weight. After 2 hrs. the animals are narcotized and decapitated. The brain (without cerebellum) and a portion of the liver are dissected out and submitted analogously to the above-described procedure for the determination of the MAO inhibiting activity, whereby the amount of enzyme used is 20 μl of a 1:20 homogenate in the case of brain and 20 μl of a 1:80 homogenate in the case of liver. The activity of the compounds is determined from a comparison of the β-values with the values for control animals treated with vehicle and is given in percentage of the control values.

[3] = test system: MAO in the brain (substrate PEA); assay: MAO inhibition ex vivo in brain of rats, substrate PEA; set-up: species or system male albino rats (Fu-SPF); settings: rat, 100 μmol/kg orally, 2 hrs., given in percentage of the control values
Description: as §1, §10

[4] = test system: MAO in the liver (substrate 5-HT); assay: MAO inhibition ex vivo in liver of rats, substrate 5-HT; set-up: species or system male albino rats (Fu-SPF); settings: rat, 100 μmol/kg orally, 2 hrs., given in percentage of the control values
Description: as §1, §10

[5] = target: T2, MAO (substrate 5-HT) (Rattus norvegicus, UniProt P21396); assay: MAO inhibition in vitro, rat brain homogenate, substrate 14C-labelled serotonin (5-HT); format: biochemical; settings: substrate 5-HT 2×10^-4 M, 37° C.
T2 construct: 20 μl of rat brain homogenate; from tissue; host or cells: rat brain homogenate
T2 sequence (P21396 1-526): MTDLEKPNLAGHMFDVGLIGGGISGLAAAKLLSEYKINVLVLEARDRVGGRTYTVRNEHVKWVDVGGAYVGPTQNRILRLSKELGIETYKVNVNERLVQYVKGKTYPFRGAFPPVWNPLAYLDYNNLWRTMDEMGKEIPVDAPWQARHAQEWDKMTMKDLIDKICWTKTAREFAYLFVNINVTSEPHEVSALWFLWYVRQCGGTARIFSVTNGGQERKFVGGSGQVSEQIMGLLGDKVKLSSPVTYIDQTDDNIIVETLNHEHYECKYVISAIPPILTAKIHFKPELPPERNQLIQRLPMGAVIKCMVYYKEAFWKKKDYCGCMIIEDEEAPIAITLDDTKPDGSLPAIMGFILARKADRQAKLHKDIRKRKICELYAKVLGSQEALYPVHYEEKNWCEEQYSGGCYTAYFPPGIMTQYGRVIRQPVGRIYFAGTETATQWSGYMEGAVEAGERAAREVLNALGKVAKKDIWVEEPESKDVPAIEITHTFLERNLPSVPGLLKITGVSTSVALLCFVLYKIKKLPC
Description: as §1, §2, §3, §4, §5, §6, §7, §8, §9

[6] = test system: MAO in the brain (substrate 5-HT); assay: MAO inhibition ex vivo in brain of rats, substrate 5-HT; set-up: species or system male albino rats (Fu-SPF); settings: rat, 100 μmol/kg orally, 2 hrs., given in percentage of the control values
Description: as §1, §10

Compound | IC50 [1] [nM] | Remaining liver MAO activity (PEA), % of control [2] [%] | Remaining brain MAO activity (PEA), % of control [3] [%] | MAO inhibition, Liver, 5HT [4] [%] | IC50 [5] [nM] | Remaining brain MAO activity, 5-HT (% of control) [6] [%]
CC1=NCCn2c1cc1c2-c2ccccc2CC1 [5,6,10,11-Tetrahydro-8-methylbenzo[g]pyrazino[1,2-a]indole] | > 1000 | 81 | 87 | 47 | 30 | 48
CC1=NCCn2c1cc1c2-c2ccc(OC3CCCC3)cc2CC1 [3-cyclopentyloxy-5,6,10,11-tetrahydro-8-methylbenzo[g]pyrazino[1,2-a]indole] | 7 | 50 | 45 | 8 | 1 | 13
CC1=NCCn2c1cc1c2-c2ccc(Cl)cc2CC1 [3-Chloro-5,6,10,11-tetrahydro-8-methylbenzo[g]pyrazino[1,2-a]indole] | > 1000 | 96 | 93 | 20 | 10 | 42
CC1=NCCn2c1cc1c2-c2ccc(OC(C)C)cc2CC1 [5,6,10,11-tetrahydro-3-isopropoxy-8-methylbenzo[g]pyrazino[1,2-a]indole] | 14 | 75 | 60 | 10 | 0.4 | 8
CC1=NCCn2c1ccc2-c1ccc(OC2CCCC2)cc1 [6-[p-(Cyclopentyloxy)phenyl]-3,4-dihydro-1-methylpyrrolo[1,2-a]pyrazine] | < 1 | 56 | 33 | 38 | 10 | 67
